Test results as given in the supplement of paper PMC10307832.

Compound: Cc1nc(NC(=O)N2CCC[C@H]2C(N)=O)sc1-c1ccnc(C(C)(C)C(F)(F)F)c1 [Alpelisib] + CCNC(=O)c1noc(-c2cc(C(C)C)c(O)cc2O)c1-c1ccc(CN2CCOCC2)cc1 [Luminespib] (partner 0.01 µM)
Test: relative viability (nuclei count vs DMSO), 5 days (fraction); higher = more cells survive
Details: first compound 0.04 µM
Method in brief: (§1)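 Lung cancer cell lines, seeded in 1536-well plates, were treated the following day by pin tool with a single drug or with five library-drug doses (not always all listed) in √10 steps on top of a fixed anchor-drug dose. Cells were fixed and nuclei stained in one step after 5 days, and nuclei were counted. Relative viability is the nuclei count for treated wells divided by that for vehicle wells, reported as medians of duplicate plates.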

Row | Cell Line | relative viability
1 | EKVX | 0.877
2 | NCI-H2087 | 0.176
3 | NCI-H1734 | 0.19
4 | LCLC-103H | 0.97
5 | LU99A | 0.298
6 | NCI-H460 | 0.0253
7 | NCI-H2170 | 0.561
8 | SK-LU-1 | 0.199
9 | COR-L23 | 0.678
10 | HCC-15 | 0.252
11 | NCI-H1944 | 0.644
12 | EMC-BAC-2 | 1.24
13 | LC-2-ad | 0.985

Same assay, conditions: first compound 0.1265 µM

Row | Cell Line | relative viability
14 | H3255 | 0.765
15 | NCI-H1975 | 0.204
16 | NCI-H1437 | 1.09
17 | HOP-62 | 0.957
18 | BEN | 0.101
19 | LOU-NH91 | 0.266
20 | NCI-H661 | 0.969
21 | NCI-H1651 | 1.05
22 | PC-3 [JPC-3] | 0.567
23 | SW 1573 | 0.215
24 | LK-2 | 0.159
25 | NCI-H2405 | 0.463
26 | NCI-H1993 | 0.744
27 | ChaGo-K-1 | 0.488
28 | NCI-H1355 | 0.575
29 | NCI-H1915 | 0.725

Row | Cell Line | relative viability
30 | NCI-H838 | 0.387
31 | A-427 | 0.881
32 | NCI-H2009 | 0.999
33 | ABC-1 | 0.932
34 | EKVX | 0.712
35 | NCI-H2087 | 0.198
36 | LCLC-103H | 0.993
37 | LU99A | 0.216
38 | NCI-H460 | 0.0415
39 | NCI-H2170 | 0.875
40 | SK-LU-1 | 0.222
41 | COR-L23 | 0.748
42 | HCC-15 | 0.292
43 | NCI-H1944 | 0.739
44 | EMC-BAC-2 | 1.03
45 | LC-2-ad | 0.97

Same assay, conditions: first compound 0.4 µM

Row | Cell Line | relative viability
46 | H3255 | 1.17
47 | NCI-H1975 | 0.199
48 | PC-14 | 0.168
49 | NCI-H1437 | 1.2
50 | HOP-62 | 1.04
51 | BEN | 0.474
52 | LOU-NH91 | 0.311
53 | NCI-H661 | 1.02
54 | NCI-H1651 | 1
55 | PC-3 [JPC-3] | 0.739
56 | SW 1573 | 0.285
57 | LK-2 | 0.196
58 | NCI-H2405 | 0.658
59 | NCI-H1993 | 0.758
60 | ChaGo-K-1 | 0.706
61 | NCI-H1355 | 0.83
62 | NCI-H1915 | 0.829

Row | Cell Line | relative viability
63 | NCI-H838 | 0.274
64 | A-427 | 1.09
65 | NCI-H2009 | 1.14
66 | ABC-1 | 0.554
67 | EKVX | 0.961
68 | NCI-H2087 | 0.174
69 | NCI-H1734 | 0.18
70 | LCLC-103H | 1.04
71 | LU99A | 0.249
72 | NCI-H460 | 0.0319
73 | NCI-H2170 | 1.12
74 | SK-LU-1 | 0.202
75 | COR-L23 | 0.696
76 | HCC-15 | 0.336
77 | NCI-H1944 | 0.706
78 | EMC-BAC-2 | 1.16
79 | LC-2-ad | 1.3

Same assay, conditions: first compound 1.265 µM

Row | Cell Line | relative viability
80 | H3255 | 0.733
81 | NCI-H1975 | 0.184
82 | PC-14 | 0.13
83 | NCI-H1437 | 1.07
84 | HOP-62 | 0.83
85 | BEN | 0.332
86 | LOU-NH91 | 0.247
87 | NCI-H661 | 0.928
88 | NCI-H1651 | 0.78
89 | PC-3 [JPC-3] | 0.687
90 | SW 1573 | 0.198
91 | LK-2 | 0.191
92 | NCI-H2405 | 0.486
93 | NCI-H1993 | 0.476
94 | ChaGo-K-1 | 0.585
95 | NCI-H1355 | 0.608
96 | NCI-H1915 | 0.643

Row | Cell Line | relative viability
97 | NCI-H838 | 0.221
98 | A-427 | 0.83
99 | NCI-H2009 | 1.06
100 | ABC-1 | 0.228
101 | EKVX | 0.844
102 | NCI-H2087 | 0.17
103 | NCI-H1734 | 0.183
104 | LCLC-103H | 0.72
105 | LU99A | 0.226
106 | NCI-H460 | 0.0281
107 | NCI-H2170 | 0.575
108 | SK-LU-1 | 0.175
109 | COR-L23 | 0.62
110 | HCC-15 | 0.423
111 | NCI-H1944 | 0.456
112 | EMC-BAC-2 | 0.932
113 | LC-2-ad | 0.846

Same assay, conditions: first compound 4 µM

Row | Cell Line | relative viability
114 | H3255 | 0.625
115 | NCI-H1975 | 0.155
116 | PC-14 | 0.144
117 | NCI-H1437 | 1.26
118 | HOP-62 | 0.956
119 | BEN | 0.159
120 | LOU-NH91 | 0.27
121 | NCI-H661 | 0.968
122 | NCI-H1651 | 0.666
123 | PC-3 [JPC-3] | 0.622
124 | SW 1573 | 0.115
125 | LK-2 | 0.176
126 | NCI-H2405 | 0.418
127 | NCI-H1993 | 0.503
128 | ChaGo-K-1 | 0.507
129 | NCI-H1355 | 0.514
130 | NCI-H1915 | 0.766

Row | Cell Line | relative viability
131 | NCI-H838 | 0.299
132 | A-427 | 0.92
133 | NCI-H2009 | 1.08
134 | ABC-1 | 0.391
135 | EKVX | 0.552
136 | NCI-H2087 | 0.159
137 | NCI-H1734 | 0.167
138 | LCLC-103H | 0.735
139 | LU99A | 0.247
140 | NCI-H460 | 0.0206
141 | NCI-H2170 | 0.373
142 | SK-LU-1 | 0.152
143 | COR-L23 | 0.477
144 | HCC-15 | 0.145
145 | NCI-H1944 | 0.275
146 | EMC-BAC-2 | 0.707
147 | LC-2-ad | 0.827

Compound: Cc1nc(NC(=O)N2CCC[C@H]2C(N)=O)sc1-c1ccnc(C(C)(C)C(F)(F)F)c1 [Alpelisib] + Cc1cc(Nc2cc(N3CCN(C)CC3)nc(Sc3ccc(NC(=O)C4CC4)cc3)n2)n[nH]1 [Tozasertib] (partner 0.1 µM)
Test: as above
Details: first compound 0.04 µM
Method in brief: as §1

Row | Cell Line | relative viability
148 | H3255 | 0.702
149 | NCI-H1975 | 0.726
150 | PC-14 | 0.588
151 | NCI-H1437 | 0.41
152 | HOP-62 | 0.328
153 | BEN | 0.552
154 | LOU-NH91 | 0.689
155 | NCI-H661 | 0.369
156 | NCI-H1651 | 0.636
157 | PC-3 [JPC-3] | 0.898
158 | SW 1573 | 0.172
